“And” between values parts separate entries of the source, which are not always exact repeats. Equal values may be shown once. “Also recorded” adds a separate entry of the source. No end group written: not given here.
Tests used:
NIH 3T3 cells [1] = assay: NIH 3T3 cell survival MTS assay in serum-free DMEM (Example 6); format: cell-based; details: for survival of NIH3T3 cells in serum-free conditions (in words): FGF2 only at low concentrations; for survival of NIH3T3 cells: low-density cultures
Method: NIH 3T3 cells are plated in 96-well plates at a density of 5,500 cells/well in 100 μl DMEM containing 0.5% FCS. After 24 hours, this medium is aspirated from the wells and replaced with 100 μl serum-free DMEM alone, or supplemented with 0.5% FCS (positive control), or a single potential survival factor, with four identical wells set up for each condition. The cells are left for up to seven days at 37 degrees and 8% CO2 before the cell survival is determined using an MTS assay. In this assay 20 μl of MTS substrate is added to each 100 μl well and the plate left in the incubator for up to four hours. Respiring cells produce a coloured reaction product that can be read using a spectrophotometer at 490 nm. […] The mean absorbance at 490 nm+/−SEM is determined for the four identically set up wells. Wells containing a known survival factor such as insulin will contain more living cells after three days than cells cultured in unsupplemented medium.

MAP kinase = assay: Western blot for tyrosine phosphorylated MAP kinase in NIH 3T3 cells; format: cell-based; details: 10 minutes
Method: A Western blot (FIG. 2f) was obtained as follows: one million NIH 3T3 cells were serum starved for 24 hours then challenged with the following agents: DMEM, 10% FCS, 0.1 ng/ml FGF2, 1 ng/ml FGF2, 10 ng/ml FGF2, 5 μg/ml insulin, 400 μg/ml peptide 52 for 10 minutes at 37 degrees Celsius before being lysed in sample buffer and band separated by PAGE. Proteins were transferred to PVDF membranes and probed with an antibody that recognises tyrosine phosphorylated MAP kinse (upper panel).

NIH 3T3 cells [2] = assay: NIH 3T3 survival and morphology, TRITC-conjugated phalloidin staining; format: cell-based; details: three days
[3] = system: Oligodendrocyte progenitors (O4 positive); format: cell-based, rat; details: six days in culture, medium supplemented with insulin
Source text: Oligodendrocyte progenitors (O4 positive) are purified from postnatal day 4 rat cerebral cortex. First a trypsinised preparation of cortical cells is dissociated to single cell suspension and pre-plated to remove unwanted adherent cells such as microglia and macrophages. Oligodendrocyte progenitors express the O4 antigen, and can be purified by panning on petri-dishes coated with anti O4 antibodies. Unbound cells are removed by gentle washing, then O4 positive cells are removed by triturating them off the plate with DMEM containing 1% FCS, through a flame-polished pasteur pipette. O4 positive cells are plated on polyornithine-coated glass coverslips at a density of 500,000 cells per well in minimal growth medium containing insulin or the peptide Ac-DRVEPYSSTA[lys]2[lys] i.e. [{Ac-DRVEPYSSTA}2-K]2-K-OH, Peptide A(d), for six days, before being fixed and stained with the anti O4 antibody. Viable O4 positive cells are counted for each condition

NIH3T3 cells = assay: cell survival/proliferation at two plating densities
Source text: FGF2 is a mitogen for a range of cells, including NIH3T3 cells.

[4] = system: rat cerebellar granule neurons cultured on monolayers of NIH 3T3 fibroblasts; assay: in vitro neurite outgrowth co-culture assay (axon regeneration); format: cell-based; details: for stimulation of neurite outgrowth (in words): agent included in coculture medium, 16 hour culture; for peptide concentration giving maximal effects in neurite outgrowth assay: rat cerebellar neurons on 3T3 monolayer, 16 hours
Method: An example of such an assay is a co-culture assay in which neurons are cultured on top of cellular monolayers for 16 hours, before being fixed and stained with a neuron-specific antibody. The mean length of the longest neurite per cell can then be determined by fluorescence microscopy using an appropriate image analysis programme. The neurons may be, for example, (in this case cerebellar granule cell neurons, hippocampal, dorsal root ganglion, olfactory, motor or dopaminergic neurons. The cellular monolayer is, for example NIH 3T3 fibroblasts.
Monolayers of NIH 3T3 fibroblasts were established by seeding 80,000 cells per well in Lab-Tek 8-chamber slides previously coated sequentially with poly-L-lysine and fibronectin and culturing them overnight in DMEM+10% FCS growth medium.
Cerebellum was dissected from post-natal day 2-4 rat pups and the meninges and extraneous tissue discarded. Cerebellum was chopped into small pieces and trypsinised for 10 minutes at 37° C. Trypsin was neutralised using growth medium and the cells pelletted at 1000×g for 7 minutes. Cerebellar neurons were then resuspended in SATO growth medium containing 2% FCS, counted, and plated on top of the fibroblast monolayer at a density of 1,500 neurons per well. After 16 hours, cocultures were fixed with 4% para-formaldehyde and stained with an anti-GAP43 neuron-specific antibody, which was a gift from Dr Graham Wilkin, Imperial College Department of Biochemistry, London, but any other neuron-specific marker can be used.
The mean neurite length of 150-200 neurons per well was determined using a fluorescent microscope and Zeiss KS300 imaging software.
Peptides A, A(d), B, C, D, E, and F were each incorporated in the SATO medium at a range of concentrations from 0 to 200 μg/ml. Nerve growth factor (NGF) and fibroblast growth factor (FGF2) were used as controls at the same range of concentrations.

DRG neurons = format: cell-based, rat; details: 10 ng/ml, 10 days in SATO medium
Method: DRG neurons were taken from embryonic day 16 rates and cultured at a density of-10,000 cells/well of a 96-well plate-over 10 days in SATO medium, unsupplemented or supplemented with 10 ng/ml NGF, 10 ng/ml FGF2 or 800 ng/ml Peptide A(d). An OD of 100% reflects the baseline cell survival n the absence of any supplement in the medium.

[5] = system: cerebellar neurones expressing a dominant-negative form of FGF receptors; assay: neurite outgrowth of cerebellar neurones from transgenic mice expressing dominant-negative FGF receptors; format: cell-based; details: neurons unable to signal through the FGF receptor; listed as Ac-DRVEPYSSTA-amide
NIH 3T3 fibroblasts = assay: survival of 3T3 fibroblasts in serum-free DMEM (MTS and morphologic method, Example 5a); format: cell-based; details: in the presence of FGF
Method: NIH 3T3 fibroblasts were plated in each well of a 96-well microtitre plate at a density of 7,000 cells per well in DMEM containing 3% FCS and left to attach overnight. The following day the growth medium was removed and replaced with 0.1 ml DMEM supplemented with FGF or Peptide A(d) or both, eight wells for each condition. The negative control was DMEM alone (maximal cell death) and the positive control was supplementation with 0.5% FCS (maximal cell survival).
Six days later (seven days from first plating the cells), the relative number of living cells in each well was assessed by adding the mitochondrial substrate MTS, [3-(4,5-dmethylthiazol-2-yl)-5-(3-carboxymethoxyphenyl)-2-(4-sulphophenyl)-2H-tetrazolium, inner salt), for four hours before reading the optical density on a microtitre plate reader at a wavelength of 490 nm. The optical density gives a measure of the number of respiring cells present in each well at the end of the assay period.
In addition to the biochemical assay, survival was assessed qualitatively using a morphologic method in which cells were plated in 8-chamber Lab Tek slides in DbEM alone (negative control), or DMEM supplemented with 0.5 ng/ml FGF2; 0.5% FCS (positive control), or 25-200 μg/ml Peptide A(d). After three days the cells were fixed with 4% paraformaldehyde, permeablised with methanol and stained with TRITC-conjugated falloidin to visualise the cell cytoskeleton.

L6 cell line = assay: survival of L6 cell line lacking FGF receptors; format: cell-based; details: FGF2 0.1, 1 and 10 ng/ml; Peptide A(d) 100 and 400 μg/ml
Method: FIG. 2d compares the effects of DMEM, FCS, FGF2 at 0.1, 1 and 10 ng/ml, insulin at 0.5 and 5 μg/ml, and Peptide A(d) at 100 and 400 μg/ml.

[6] = system: cells in S phase (bromodeoxyuridine incorporation into DNA); assay: bromodeoxyuridine incorporation (entry into S phase) mitogenicity assay; format: cell-based; details: six hours
Method: The mitogenicity of an agent can be determined by testing its ability to stimulate entry of cells into ‘S’ phase in readiness for cell division. This is done by standard methodology and involves incubating cells in the presence of a potential mitogen in DMEM supplemented with bromodeoxyuridine. After six hours the cells are fixed and stained with an antibody recognising bromodeoxyuridine. Cells in S phase can be distinguished by their incorporation of bromodeoxyuridine into DNA.

[7] = insulin 0.5 pg/ml, FGF2 0.1 ng/ml, Peptide A(d) 10 ng/ml

Row | Substance | survival of NIH3T3 cells in serum-free conditions (in words) (NIH 3T3 cells [1]) | stimulation of neurite outgrowth (in words) [4] | peptide concentration giving maximal effects in neurite outgrowth assay [4] | other results
1 | insulin: known survival factor | stimulate dose-dependent survival |  |  | MAP kinase activation (MAP kinase; insulin 5 μg/ml): showed a small activation; also recorded: do not; cell survival / morphology (NIH 3T3 cells [2]; [7]): stimulate cell survival; cells originally plated that survive [3]: 25%; cell proliferation (NIH3T3 cells; 11,000 cells per well, FGF2 10 ng/ml): stimulates cell proliferation
2 | [{Ac-ARSEPYSSTA}2-K]2-K-OH (also: branched lysine tetramer: four chains on [K]2-K core, core C-terminus free acid (-OH)) [Ac-ARSEPYSSTA [lys]2[lys], "mutated" multimeric peptide] | stimulated cell survival, though not as potently as the parent peptide |  |  | 
3 | Acetyl-EGME-amide [Peptide C] | able to stimulate cell survival | stimulates neurite outgrowth to the same extent as Ac-DRVE-amide | 38 μg/ml and 75 μM | 
4 | Acetyl-DRSEPYSSTA-amide (Ac-DRSEPYSSTA-NH2) [Peptide E] |  | retain the full ability to stimulate neurite outgrowth | 50-100 μg/ml and 50-100 μM | 
5 | Ac-ARVEPYSSTA-amide (Ac-ARVEPYSSTA-NH2) |  | do not |  | 
6 | NGF: Nerve growth factor (NGF) |  | approximately doubles |  | increase in DRG neuron survival over unsupplemented baseline (DRG neurons): 121%
7 | Acetyl-DRVEPYSSTA-amide (Ac-DRVEPYSSTA-NH2) [Peptide A] |  | full activity was retained | 100-200 μg/ml and 100-200 μM | effect on neurite outgrowth stimulated by FGF2 ([4]; peptide at low concentration (25 μM), listed as Ac-DRVEPYSSTA-amide): inhibits neurite outgrowth stimulated by FGF2; neurite extension in response to the peptide [5]: unable to extend neurites; also recorded: not able to extend neurites
8 | FGF2: fibroblast growth factor (FGF2) | stimulate dose-dependent survival | approximately doubles; also recorded: stimulates neurite outgrowth in this assay with a biphasic dose-response curve |  | cells remaining compared with the peptide (NIH 3T3 fibroblasts): far fewer cells remaining; survival of NIH3T3 cells (NIH 3T3 cells [1]; FGF2 1 ng/ml): ineffective; survival of NIH3T3 cells (NIH 3T3 cells [1]; FGF2 10 ng/ml, three days): stimulates apoptosis; increase in DRG neuron survival over unsupplemented baseline (DRG neurons): 73%; MAP kinase activation (MAP kinase; FGF2 0.1 ng/ml): did not; also recorded: do not; MAP kinase activation (MAP kinase; FGF2 1 or 10 ng/ml): resulted in MAP kinase activation; also recorded: stimulate MAP kinase activation; cell survival / morphology (NIH 3T3 cells [2]; FGF2 1 and 10 ng/ml): reduced in number, and appear apoptotic; cell survival / morphology (NIH 3T3 cells [2]; [7]): stimulate cell survival; survival of L6 cell line (L6 cell line): unable to stimulate the survival; effect on cells plated at low density (NIH3T3 cells; 5,500 cells per well, 10 ng/ml FGF2): stimulates apoptosis; mitogenicity (entry into S phase) ([6]; FGF2 0.1 ng/ml): unable to stimulate entry into S phase; mitogenicity (entry into S phase) ([6]; FGF2 10 ng/ml): mitogenicity of 10 ng/ml FGF2 can be seen
9 | Acetyl-DRVE-amide (Ac-DRVE-NH2) [Peptide B] | able to stimulate cell survival | could stimulate the response | 75 μg/ml and 150 μM | 
10 | Acetyl-DAVEPYSSTA-amide (Ac-DAVEPYSSTA-NH2) [Peptide F] |  | retain the full ability to stimulate neurite outgrowth |  | 
11 | Ac-PYSSTA-NH2 |  | unable to stimulate neurite outgrowth |  | effect on NCAM-stimulated neurite outgrowth ([4]; NCAM-stimulated, low peptide concentrations): able to inhibit NCAM-stimulated neurite outgrowth
12 | Acetyl-EGMEGM-amide (Ac-EGMEGM-NH2) [Peptide D] |  | equally active | 100 µM | 
13 | soluble NCAM: soluble NCAM (Neuronal Cell Adhesion Molecule) |  | approximately doubles |  | 
14 | Ac-SIDRVEPYSSTAQ-amide (Ac-SIDRVEPYSSTAQ-NH2) [synthetic 13 amino acid peptide derived from the first fibronectin type III domain of NCAM] |  | dose-dependent increase in neurite outgrowth |  | concentration at which neurite length equalled that stimulated by NCAM [4]: 100 µM
15 | Ac-ARSEPYSSTA-amide (Ac-ARSEPYSSTA-NH2) |  | do not |  | 
16 | [{Ac-ADTRSVSEYP}2-K]2-K-OH (also: branched lysine tetramer: four chains on [K]2-K core, core C-terminus free acid (-OH)) [Ac-ADTRSVSEYP [lys]2[lys], 'scrambled' version of Peptide A(d)] | ineffective |  |  | 
